Patent US20250296953A1, “3,4-THIAZOLO-STEROIDS AND METHODS OF MAKING AND USING THE SAME” (Arkansas State University - Jonesboro, priority 2018, published 2025)
Like-named read-outs stand apart in the source and are kept apart here.

Experiments:
Test in all cases: Melanoma cytotoxicity assay (resazurin)
Format in all cases: cell-based
SK-MEL-28 = details: for SK-MEL-28 (% inhibition) / IC50: SK-MEL-28 melanoma cells, resazurin; for SK-MEL-28 (% inhibition): 24 hours with compound, concentration not given; for SK-MEL-28 (% viability): human, 24 h; for IC50: Homo sapiens, 24 hours
Procedure: (§1) Cytotoxicity Assay: Melanoma cells (˜4000 cells in each well) were incubated in a 96 well plates at 37° C. in 5% CO2 for 24 hours. Compounds were added in triplicates and the plate was further incubated for 24 hours. DMSO and dacarbazine were added as technical and positive controls respectively. Next day resazurin was added and the plate was further incubated for 6 hours followed by reading the plate at 544 nm (excitation) and 590 nm (emission) using BMG Labtech Fluostar Optima plate reader. IC50 values were determined by using Graphpad Prism.
(§2) On day 1, the cell line trypsinized and centrifuged to form cell pellet. The pellet was diluted in media, then counted using Countess automated cell counter. Approximately 4000 cells (198 uL) per well plated in […]. A control well of 200 uL growth media was also prepared. Wells closest to plate perimeter were filled with 200 uL PBS to prevent inner well evaporation. The 96 well plates are incubated in 37° C. incubator at 5% CO2 for 24 hours.
(§3) On day 2, compounds were added (in triplicate) along with DMSO/Dacarbazine controls (2 uL) added to bring wells to volume of 200 μL. The 96 well plates are incubated in 37° C. incubator at 5% CO2 for 24 hours.
(§4) On day 3, 40 μL of 0.15 mg/ml reszurin solution added to wells. Samples were placed in a 37° C. incubator at 5% CO2 for 6 hours. Excitation and emission for fluorescence measured at 544 nm and 590 nm using BMG Labtech Fluostar Optima plate reader
(§5) Percent viability determined by taking average of each triplicate well fluorescence and subtracting GM well reading to remove the background signal. This difference is then divided by the average of the negative control (DMSO) wells to determine percent viability.
(§6) IC50s were determined by using cereal dilution of compound to determine viability. Viabilities and concentration of cells are analyzed in Graphpad Prism by creating sigmoidal curve graph, which will determine the IC50 concentration.
(§7) We analyzed the ability of the thiazole-androstane derivatives to inhibit growth in various melanoma cell lines. The growth inhibition against melanoma cell lines of various compound is shown below in Tables 19 and 20. Inhibition results are reported as the IC50 concentration in μM of the indicated compound or as the percent viability […] of the indicated compound. NA=not available.

SK-MEL-5 = details: for SK-MEL-5 (% inhibition): SK-MEL-5 melanoma cells, 24 hours with compound, resazurin, concentration not given; for SK-MEL-5 (% viability): human, 24 h
Procedure: as §1, §2, §3, §4, §5, §6, §7

SK-MEL-25 = details: for SK-MEL-25 (% inhibition): 24 hours with compound, concentration not given; for SK-MEL-25 (% viability): human, 24 h; for IC50: Homo sapiens
Procedure: as §1, §2, §3, §4, §5, §6, §7

LOX IMVI = details: for LOX-IMVI (% inhibition) / IC50: LOX IMVI melanoma cells, resazurin; for LOX-IMVI (% inhibition): 24 hours with compound, concentration not given; for IC50: Homo sapiens, 24 hours
Procedure: as §1, §2, §3, §4, §5, §6, §7

MALME-3M = details: human, 24 h
Procedure: as §2, §3, §4, §5, §6, §7

[1] = SK-MEL-25 melanoma cells, resazurin
[2] = SK-MEL-25 melanoma cells, 24 hours, resazurin, read-out: SK-MEL-25 (IC50)

Structure (SMILES)	SK-MEL-28 (% inhibition) (SK-MEL-28)	SK-MEL-5 (% inhibition) (SK-MEL-5)	SK-MEL-25 (% inhibition) (SK-MEL-25; [1])	LOX-IMVI (% inhibition) (LOX IMVI)	also measured
C[C@]12CCc3nc(Cc4ccccc4)sc3C1=CC[C@@H]1[C@@H]2CC[C@]2(C)C(=O)CC[C@@H]12 [II.2]	98%	77%	69%	17%	
C[C@]12CCc3nc(-c4ccc(O)cc4)sc3C1=CC[C@@H]1[C@@H]2CC[C@]2(C)C(=O)CC[C@@H]12 [II.4, (1S,2R,13R,14S,18S)-7-(4-hydroxy)-2,18-dimethyl-8-thia-6-azapentacyclo[11.7.0.02,10.05,9.014,18]icosa-5(9),7,10-trien-17-one]				16%	
COc1cccc(-c2nc3c(s2)C2=CC[C@@H]4[C@H](CC[C@]5(C)C(=O)CC[C@@H]45)[C@@]2(C)CC3)c1 [II.9, (1S,2R,13R,14S,18S)-7-(3-methoxyphenyl)-2,18-dimethol-8-thia-6-azapentacyclo[11.7.0.02,10.05,9.014,18]icosa-5(9),7,10-trien-17-one]				13%	
C[C@]12CCc3nc(-c4ccccc4O)sc3C1=CC[C@@H]1[C@@H]2CC[C@]2(C)C(=O)CC[C@@H]12 [II.11]				35%	
C[C@]12CCc3nc(-c4cccc(O)c4)sc3C1=CC[C@@H]1[C@@H]2CC[C@]2(C)C(=O)CC[C@@H]12 [II.17, (1S,2R,13R,14S,18S)-7-(3-hydroxy)-2,18-dimethyl-8-thia-6-azapentacyclo[11.7.0.02,10.05,9.014,18]icosa-5(9),7,10-trien-17-one]				17%	
CCOc1cccc(-c2nc3c(s2)C2=CC[C@@H]4[C@H](CC[C@]5(C)C(=O)CC[C@@H]45)[C@@]2(C)CC3)c1 [II.23]				52%	
C[C@]12CCc3nc(-c4cc(Cl)cc(Cl)c4)sc3C1=CC[C@@H]1[C@@H]2CC[C@]2(C)C(=O)CC[C@@H]12 [II.25]				89%	
CNc1nc2c(s1)C1=CC[C@H]3[C@@H]4CC[C@H](O)[C@@]4(C)CC[C@@H]3[C@@]1(C)CC2 [IIIa.2, (1S,2R,13R,14S,17S,18S)-2,18-dimethyl-7-(methylamino)-8-thia-6-azapentacyclo[11.7.0.02,10.05,9.014,18]icosa-5(9),6,10-trien-17-ol]					SK-MEL-28 (% viability) (SK-MEL-28): 1.9%; SK-MEL-5 (% viability) (SK-MEL-5): 2.02%; SK-MEL-25 (% viability) (SK-MEL-25): 6.21%; LOX-IMVI (% viability) (LOX IMVI; human, 24 h): 14%; MALME-3M (% viability) (MALME-3M): 59.51%
CC(=O)Nc1nc2c(s1)C1=CC[C@H]3[C@@H]4CC[C@H](O)[C@@]4(C)CC[C@@H]3[C@@]1(C)CC2 [IIIa.37, N-[(1S,2R,13R,14S,17S,18S)-17-hydroxy-2,18-dimethyl-8-thia-6-azapentacyclo[11.7.0.02,10.05,9.014,18]icosa-5(9),6,10-trien-7-yl]acetamide]					SK-MEL-28 (% viability) (SK-MEL-28): 62.56%; SK-MEL-5 (% viability) (SK-MEL-5): 48.52%; IC50 (SK-MEL-25; SK-MEL-25 melanoma cells (head prints SK-25), read-out: SK-25 IC50): > 20 µM; SK-MEL-25 (% viability) (SK-MEL-25): 39.57%; MALME-3M (% viability) (MALME-3M): 104.91%
C[C@]12CCc3sc(Nc4ccccc4Cl)nc3C1=CC[C@@H]1[C@@H]2CC[C@]2(C)C(=O)CC[C@@H]12 [IIa.11, (1S,2R,13R,14S,18S)-7-(2-chloroanilino)-2,18-dimethyl-6-thia-8-azapentacyclo[11.7.0.02,10.05,9.014,18]icosa-5(9),7,10-trien-17-one]	88%	84%	96%		IC50 (SK-MEL-28): > 20 µM; IC50 (SK-MEL-25; [2]): 9 µM; IC50 (LOX IMVI): 12 µM
C[C@]12CCc3sc(Nc4ccc(C(=O)O)cc4)nc3C1=CC[C@@H]1[C@@H]2CC[C@]2(C)C(=O)CC[C@@H]12 [IIa.23, 4-[[(1S,2R,13R,14S,18S)-2,18-dimethyl-17-oxo-6-thia-8-azapentacyclo[11.7.0.02,10.05,9.014,18]icosa-5(9),7,10-trien-7-yl]amino]benzoic acid]	78%	43%	71%		
CCNc1nc2c(s1)CC[C@@]1(C)C2=CC[C@@H]2[C@@H]1CC[C@]1(C)C(=O)CC[C@@H]21 [IIa.30, (1S,2R,13R,14S,18S)-7-(ethylamino)-2,18-dimethyl-6-thia-8-azapentacyclo[11.7.0.02,10.05,9.014,18]icosa-5(9),7,10-trien-17-one]	67%	26%	4%		
CCCCNC1=NC2C3=CC[C@@H]4[C@H](CC[C@]5(C)C(=O)CC[C@@H]45)[C@@]3(C)CCC2S1 (stereo partly drawn) [IIa.31, (1S,2R,13R,14S,18S)-7-(butylamino)-2,18-dimethyl-6-thia-8-azapentacyclo[11.7.0.02,10.05,9.014,18]icosa-7,10-dien-17-one]	93%	69%	74%		
Cc1ccc(Nc2nc3c(s2)CC[C@@]2(C)C3=CC[C@@H]3[C@@H]2CC[C@]2(C)C(=O)CC[C@@H]32)cc1 [IIa.32, (1S,2R,13R,14S,18S)-2,18-dimethyl-7-(4-methylanilino)-6-thia-8-azapentacyclo[11.7.0.02,10.05,9.014,18]icosa-5(9),7,10-trien-17-one]	63%		87%		IC50 (SK-MEL-28): > 20 µM; IC50 (SK-MEL-25; [2]): 5 µM; IC50 (LOX IMVI): 9 µM
C[C@]12CCc3sc(Nc4ccccc4F)nc3C1=CC[C@@H]1[C@@H]2CC[C@]2(C)C(=O)CC[C@@H]12 [IIa.33, (1S,2R,13R,14S,18S)-7-(2-fluoroanilino)-2,18-dimethyl-6-thia-8-azapentacyclo[11.7.0.02,10.05,9.014,18]icosa-5(9),7,10-trien-17-one]	66%	87%	77%		
C[C@]12CCc3sc(Nc4cccc(C(=O)O)c4)nc3C1=CC[C@@H]1[C@@H]2CC[C@]2(C)C(=O)CC[C@@H]12 [IIa.34, 3-[[(1S,2R,13R,14S,18S)-2,18-dimethyl-17-oxo-6-thia-8-azapentacyclo[11.7.0.02,10.05,9.014,18]icosa-5(9),7,10-trien-7-yl]amino]benzoic acid]	73%	80%	59%		
CC(=O)Nc1nc2c(s1)C1=CC[C@@H]3[C@H](CC[C@]4(C)C(=O)CC[C@@H]34)[C@@]1(C)CC2 [IIb.1, N-[(1S,2R,13R,14S,18S)-2,18-dimethyl-17-oxo-8-thia-6-azapentacyclo[11.7.0.02,10.05,9.014,18]icosa-5(9),6,10-trien-7-yl]acetamide]	16%	5%	31%		
